# Read-outs that look alike come from different tables or passages of the source.
# Experiments:
# Test in all cases: Kinase panel profiling at 1 µmol/L (MSA or IMAP), percentage inhibition
# Format in all cases: biochemical
# [1] = target: panel of 255 wild-type kinases (Homo sapiens, UniProt P08069); details: read-out: %-inhibition at 1 µmol/L, IGF1R
# [2] = target: panel of 255 wild-type kinases (Homo sapiens, UniProt P08631); details: read-out: %-inhibition at 1 µmol/L, HCK
# [3] = target: T1, panel of 255 wild-type kinases (Homo sapiens, UniProt P15735); details: read-out: %-inhibition at 1 µmol/L, PHKG2
# T1 sequence (P15735 1-406): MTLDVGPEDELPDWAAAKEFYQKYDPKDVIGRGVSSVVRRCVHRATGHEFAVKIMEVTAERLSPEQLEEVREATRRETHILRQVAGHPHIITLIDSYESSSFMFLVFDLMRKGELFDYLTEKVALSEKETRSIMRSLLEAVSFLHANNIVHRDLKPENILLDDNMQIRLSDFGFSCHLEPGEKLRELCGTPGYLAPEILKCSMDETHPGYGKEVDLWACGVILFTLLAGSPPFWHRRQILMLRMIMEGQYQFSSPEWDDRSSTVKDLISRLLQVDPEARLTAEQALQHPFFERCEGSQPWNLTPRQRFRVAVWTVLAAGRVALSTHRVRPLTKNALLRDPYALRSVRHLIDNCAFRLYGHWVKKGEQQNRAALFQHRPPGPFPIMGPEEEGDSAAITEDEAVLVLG
# [4] = target: T2, panel of 255 wild-type kinases (Homo sapiens, UniProt P29323); details: read-out: %-inhibition at 1 µmol/L, EPHB2
# T2 sequence (P29323 19-1055): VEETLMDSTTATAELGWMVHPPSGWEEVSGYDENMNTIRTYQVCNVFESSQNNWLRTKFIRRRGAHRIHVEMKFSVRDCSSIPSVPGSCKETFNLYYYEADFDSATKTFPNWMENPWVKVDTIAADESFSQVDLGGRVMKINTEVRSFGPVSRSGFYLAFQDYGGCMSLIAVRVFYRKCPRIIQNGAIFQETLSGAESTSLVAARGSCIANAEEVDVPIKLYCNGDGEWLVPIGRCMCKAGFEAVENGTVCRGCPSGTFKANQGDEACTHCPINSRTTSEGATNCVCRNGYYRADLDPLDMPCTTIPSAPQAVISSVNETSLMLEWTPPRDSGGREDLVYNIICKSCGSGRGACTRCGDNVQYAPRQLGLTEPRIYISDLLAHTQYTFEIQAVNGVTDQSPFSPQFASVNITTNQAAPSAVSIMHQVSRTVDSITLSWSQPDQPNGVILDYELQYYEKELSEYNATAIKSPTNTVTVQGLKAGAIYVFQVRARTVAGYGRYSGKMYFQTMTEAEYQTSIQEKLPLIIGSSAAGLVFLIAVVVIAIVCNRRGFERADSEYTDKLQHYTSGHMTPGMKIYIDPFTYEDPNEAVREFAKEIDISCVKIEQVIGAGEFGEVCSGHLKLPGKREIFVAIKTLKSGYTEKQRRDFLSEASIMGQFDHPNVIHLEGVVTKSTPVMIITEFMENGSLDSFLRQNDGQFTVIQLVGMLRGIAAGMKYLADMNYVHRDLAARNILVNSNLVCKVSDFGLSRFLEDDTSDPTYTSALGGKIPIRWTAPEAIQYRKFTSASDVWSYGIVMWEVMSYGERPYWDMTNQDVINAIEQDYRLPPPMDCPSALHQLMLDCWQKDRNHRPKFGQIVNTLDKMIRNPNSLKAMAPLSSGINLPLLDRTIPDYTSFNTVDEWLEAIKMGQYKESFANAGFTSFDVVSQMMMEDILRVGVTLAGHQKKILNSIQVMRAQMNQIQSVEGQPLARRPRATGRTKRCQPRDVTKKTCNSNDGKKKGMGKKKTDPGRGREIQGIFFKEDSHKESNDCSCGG
# [5] = target: panel of 255 wild-type kinases (Homo sapiens, UniProt P42685); details: read-out: %-inhibition at 1 µmol/L, FRK
# [6] = target: panel of 255 wild-type kinases (Homo sapiens, UniProt Q13464); details: read-out: %-inhibition at 1 µmol/L, ROCK1
# [7] = target: T3, panel of 255 wild-type kinases (Homo sapiens, UniProt Q13976); details: read-out: %-inhibition at 1 µmol/L, PGK
# T3 sequence (Q13976 1-671): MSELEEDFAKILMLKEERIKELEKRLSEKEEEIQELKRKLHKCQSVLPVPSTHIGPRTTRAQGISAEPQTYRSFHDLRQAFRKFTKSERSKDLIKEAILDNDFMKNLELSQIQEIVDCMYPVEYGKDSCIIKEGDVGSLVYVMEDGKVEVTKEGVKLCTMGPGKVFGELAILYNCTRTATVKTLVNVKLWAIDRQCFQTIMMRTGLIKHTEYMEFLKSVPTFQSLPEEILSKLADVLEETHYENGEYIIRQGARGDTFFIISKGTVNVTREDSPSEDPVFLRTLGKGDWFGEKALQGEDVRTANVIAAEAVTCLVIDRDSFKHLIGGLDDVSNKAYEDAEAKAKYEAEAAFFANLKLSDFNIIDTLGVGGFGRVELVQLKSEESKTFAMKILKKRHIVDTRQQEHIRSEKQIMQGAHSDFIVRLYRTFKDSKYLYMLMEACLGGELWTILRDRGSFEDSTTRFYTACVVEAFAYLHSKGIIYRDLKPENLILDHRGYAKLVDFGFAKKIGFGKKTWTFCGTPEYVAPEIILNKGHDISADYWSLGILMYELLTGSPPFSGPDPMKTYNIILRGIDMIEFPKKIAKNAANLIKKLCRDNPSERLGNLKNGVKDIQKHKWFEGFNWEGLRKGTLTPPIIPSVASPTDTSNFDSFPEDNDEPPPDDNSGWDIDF
# [8] = target: panel of 255 wild-type kinases (Homo sapiens, UniProt Q16539); details: read-out: %-inhibition, p38α
# [9] = target: panel of 255 wild-type kinases (Homo sapiens, UniProt Q9H2X6); details: read-out: %-inhibition at 1 µmol/L, HIPK2
# [10] = target: panel of 255 wild-type kinases (Homo sapiens, UniProt Q9HC98); details: read-out: %-inhibition, NEK6
# [11] = kinase IGF1R, 1 µmol/L single concentration
# [12] = kinase HCK, 1 µmol/L single concentration
# [13] = kinase PHKG2, 1 µmol/L single concentration
# [14] = kinase EPHB2, 1 µmol/L single concentration
# [15] = kinase FRK, 1 µmol/L single concentration
# [16] = kinase ROCK1, 1 µmol/L single concentration
# [17] = kinase PGK, 1 µmol/L single concentration
# [18] = p38α, 1 µmol/L single concentration
# [19] = kinase HIPK2, 1 µmol/L single concentration
# [20] = NEK6, 1 µmol/L single concentration
SMILES,"inhibition at 1 µM [1, 11]","inhibition at 1 µM [2, 12]","inhibition at 1 µM [3, 13]","inhibition at 1 µM [4, 14]","inhibition at 1 µM [5, 15]","inhibition at 1 µM [6, 16]","inhibition at 1 µM [7, 17]","inhibition at 1 µM [8, 18]","inhibition at 1 µM [9, 19]","inhibition at 1 µM [10, 20]",inhibition at 1 µM [1],inhibition at 1 µM [2],inhibition at 1 µM [3],inhibition at 1 µM [4],inhibition at 1 µM [5],inhibition at 1 µM [6],inhibition at 1 µM [7],inhibition at 1 µM [8],inhibition at 1 µM [9],inhibition at 1 µM [10]
COC(=O)N[C@@H](C)CNc1nccc(-c2cn(C(C)C)nc2-c2cc(Cl)cc(NS(C)(=O)=O)c2F)n1 [encorafenib],6.61%,-5.46%,-1.79%,5.43%,8%,0.403%,-1.28%,35%,0.238%,-2.36%,,,,,,,,,,
C[C@H](Nc1ncnc2nc[nH]c12)c1cc2cccc(Cl)c2c(=O)n1-c1ccccc1 [duvelisib],1.51%,6%,0.785%,2%,-2.26%,-4.36%,1.63%,5%,0.116%,-1%,,,,,,,,,,
CCN1CCN(c2ccc(Nc3cc(N(C)C(=O)Nc4c(Cl)c(OC)cc(OC)c4Cl)ncn3)cc2)CC1 [infigratinib],18%,22%,1.64%,-0.114%,,0.396%,-2%,4.45%,-0.912%,-2.62%,,,,,,,,,,
CNC(=O)c1ccc(-c2cnc3ncc(Cc4ccc5ncccc5c4)n3n2)cc1F [capmatinib],,,,,,,,,,,5.7%,-1.63%,0.266%,-5%,-2%,1.06%,-4.5%,3.37%,0.264%,-4%
FC(F)(F)c1ccc(CNc2ccc(Cc3c[nH]c4ncc(Cl)cc34)cn2)cn1 [pexidartinib],17%,3%,4.25%,8%,5.44%,9%,14%,0.932%,4.6%,-0.796%,,,,,,,,,,
O=C(Nc1cnn2ccc(N3CCC[C@@H]3c3cc(F)ccc3F)nc12)N1CC[C@H](O)C1 [larotrectinib],3.6%,-3%,5.63%,-0.574%,-0.308%,-5.36%,-2.33%,-1.34%,-0.39%,0.246%,,,,,,,,,,
CCc1nc(C(N)=O)c(Nc2ccc(N3CCC(N4CCN(C)CC4)CC3)c(OC)c2)nc1NC1CCOCC1 [gilteritinib],99%,87%,59%,75%,95%,60%,41%,4%,84%,-2%,,,,,,,,,,
CCn1c(=O)c(-c2cc(NC(=O)Nc3ccccc3)c(F)cc2Br)cc2cnc(NC)cc21 [ripretinib],3.34%,60%,1.5%,75%,87%,-2.14%,-0.449%,88%,0.0334%,-4%,,,,,,,,,,
CN1CCN(c2ccc(C(=O)Nc3n[nH]c4ccc(Cc5cc(F)cc(F)c5)cc34)c(NC3CCOCC3)c2)CC1 [entrectinib],98%,91%,41%,64%,96%,4.51%,,7%,8%,-1.86%,,,,,,,,,,
Cn1cnc2c(F)c(Nc3ccc(Br)cc3F)c(C(=O)NOCCO)cc21 [binimetinib],4.47%,-8%,-3.26%,3.33%,3%,-7%,-3%,-8%,-4.27%,-2.65%,,,,,,,,,,
C[C@H]1Oc2cc(cnc2N)-c2c(nn(C)c2C#N)CN(C)C(=O)c2ccc(F)cc21 [lorlatinib],79%,42%,92%,14%,,3.64%,0.684%,6%,-2%,-0.382%,,,,,,,,,,
C=CC(=O)N1CCC([C@@H]2CCNc3c(C(N)=O)c(-c4ccc(Oc5ccccc5)cc4)nn32)CC1 [zanubrutinib],3%,,4.22%,-1.07%,82%,-1.57%,-2.64%,-1.11%,-0.321%,-1%,,,,,,,,,,
